The results in this text go back to patent publication US20260133203A1, “DETECTION OF FUMARATE-DERIVED MODIFICATION IN A TEST SAMPLE” (UNIVERSITY OF SOUTH CAROLINA, priority 2017, published 2026).

In this assay the target is T1, Collapsin Response Mediator 2 (CRMP2) (Rattus norvegicus, UniProt P47942).
T1 construct: Primary neurons from newborn rat brain cortices were isolated and cultured; endogenous in cells; host or cells: primary rat cortical neurons (postnatal day 1)
Kind of assay: LC-MS/MS site mapping of CRMP2 peptide GLYDGPVCEVSVTPK succination. The assay is classed as cell-based. The settings on record: primary rat neurons, +2 charge-state, y8 and b8 fragment ions. The protocol: Primary neurons from newborn rat brain cortices were isolated and cultured using an adaptation of methods described previously. Briefly, postnatal day 1 rats were sacrificed by decapitation, the brains were aseptically dissected, and cortices were separated from the rest of the brain in ice-cold Hibernate®-A medium (Life Technologies) containing 2% (v/v) B-27 supplement (Life Technologies) and 0.5 mM glutamine (Invitrogen™). The tissue was minced in fragments of about 1 mm3 with a scalpel and subjected to digestion with 2 mg/ml papain (Worthington) in the supplemented Hibernate®-A medium for 20 minutes at 30° C. in a shaker incubator set at 100 rpm. After thorough trituration through a fire-polished Pasteur pipette, the tissue was allowed to settle for 5 minutes and the supernatant was carefully layered on top of a discontinuous OptiPrep™ (Sigma-Aldrich™) gradient prepared in Hibernate®-A medium; the layers contained 35, 25, 20 and 15% OptiPrep™. […] After a centrifugation at 500 g for 5 min at room temperature, cells were resuspended in Neurobasal™—A medium containing 0.5 mM glutamine, 2% B-27 supplement, and 5 ng/ml bFGF (Invitrogen™); counted and plated on 24-well plates pretreated with 0.01% poly-L-lysine (Sigma-Aldrich™) at a density of 200,000 cells/well. […] The protein content in the different samples was determined by the Lowry assay. […]

Where a name gives a salt, the structure may show the parent alone.

Turning to `COC(=O)/C=C/C(=O)OC` [DMF, dimethyl fumarate], the “site of succination on CRMP2” value is “Cys504”.
